The text below walks through data of the supplement of paper PMC10307832.

The test system of one assay is NCI-H1792. Briefly: relative viability (nuclei count vs DMSO), 5 days (fraction); higher = more cells survive. The settings on record: first compound 0.2 µM. Put shortly:
(§1)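 Lung cancer cell lines in 1536-well plates were dosed by pin tool the day after seeding, either with one drug alone or with a fixed anchor-drug dose plus five library-drug doses (not always all listed) in √10 steps. After 5 days, cells were fixed and their nuclei stained in one step (final 0.05% Triton X-100, 1% formaldehyde, 1 ug/ml Hoechst), then counted on 4× images. Relative viability is the nuclei count in treated wells divided by that in vehicle wells. Values are medians of duplicate plates.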
With `COCC1(CO)C(=O)C2CCN1CC2` (configuration not stated) [PRIMA-1MET] + C[C@@H](Oc1cc(-c2cnn(C3CCNCC3)c2)cnc1N)c1c(Cl)ccc(F)c1Cl [Crizotinib] (partner 1 µM), the relative viability amounted to 1.08.

Still in this assay, the particulars now being: first compound 0.6325 µM.
With `COCC1(CO)C(=O)C2CCN1CC2` (configuration not stated) [PRIMA-1MET] + C[C@]1(O)C[C@@H](c2nc(-c3ccc4ccc(-c5ccccc5)nc4c3)c3c(N)nccn32)C1 [Linsitinib] (partner 1 µM), the relative viability was 0.477.
As to `COCC1(CO)C(=O)C2CCN1CC2` (configuration not stated) [PRIMA-1MET] + Cc1nc(NC(=O)N2CCC[C@H]2C(N)=O)sc1-c1ccnc(C(C)(C)C(F)(F)F)c1 [Alpelisib] (partner 2 µM), the relative viability is 0.557.
On the same count and under the same terms, the same measure for `COCC1(CO)C(=O)C2CCN1CC2` (configuration not stated) [PRIMA-1MET] + C[C@@H](Oc1cc(-c2cnn(C3CCNCC3)c2)cnc1N)c1c(Cl)ccc(F)c1Cl [Crizotinib] (partner 1 µM): 0.884.

The same assay, now with this note: first compound 2 µM.
`COCC1(CO)C(=O)C2CCN1CC2` (configuration not stated) [PRIMA-1MET] + C[C@]1(O)C[C@@H](c2nc(-c3ccc4ccc(-c5ccccc5)nc4c3)c3c(N)nccn32)C1 [Linsitinib] (partner 1 µM) came in with a relative viability of 0.368.
Regarding `COCC1(CO)C(=O)C2CCN1CC2` (configuration not stated) [PRIMA-1MET] + Cc1nc(NC(=O)N2CCC[C@H]2C(N)=O)sc1-c1ccnc(C(C)(C)C(F)(F)F)c1 [Alpelisib] (partner 2 µM), the relative viability is 0.456.
Same read-out and setting: with `COCC1(CO)C(=O)C2CCN1CC2` (configuration not stated) [PRIMA-1MET] + C[C@@H](Oc1cc(-c2cnn(C3CCNCC3)c2)cnc1N)c1c(Cl)ccc(F)c1Cl [Crizotinib] (partner 1 µM) the figure was 1.1.

The assay is the same for the next values; noted with them: first compound 6.325 µM.
Take `COCC1(CO)C(=O)C2CCN1CC2` (configuration not stated) [PRIMA-1MET] + C[C@]1(O)C[C@@H](c2nc(-c3ccc4ccc(-c5ccccc5)nc4c3)c3c(N)nccn32)C1 [Linsitinib] (partner 1 µM): the relative viability was found to be 0.578.
The compound `COCC1(CO)C(=O)C2CCN1CC2` (configuration not stated) [PRIMA-1MET] + Cc1nc(NC(=O)N2CCC[C@H]2C(N)=O)sc1-c1ccnc(C(C)(C)C(F)(F)F)c1 [Alpelisib] (partner 2 µM) returned a relative viability of 0.754.
Compound `COCC1(CO)C(=O)C2CCN1CC2` (configuration not stated) [PRIMA-1MET] + C[C@@H](Oc1cc(-c2cnn(C3CCNCC3)c2)cnc1N)c1c(Cl)ccc(F)c1Cl [Crizotinib] (partner 1 µM) returned a relative viability of 0.991.

The assay is the same for the next values; noted with them: first compound 20 µM.
`COCC1(CO)C(=O)C2CCN1CC2` (configuration not stated) [PRIMA-1MET] + C[C@]1(O)C[C@@H](c2nc(-c3ccc4ccc(-c5ccccc5)nc4c3)c3c(N)nccn32)C1 [Linsitinib] (partner 1 µM) displayed a relative viability of 0.53.
Still for that read-out and setting: the same measure for `COCC1(CO)C(=O)C2CCN1CC2` (configuration not stated) [PRIMA-1MET] + Cc1nc(NC(=O)N2CCC[C@H]2C(N)=O)sc1-c1ccnc(C(C)(C)C(F)(F)F)c1 [Alpelisib] (partner 2 µM): 0.687; for `COCC1(CO)C(=O)C2CCN1CC2` (configuration not stated) [PRIMA-1MET] + C[C@@H](Oc1cc(-c2cnn(C3CCNCC3)c2)cnc1N)c1c(Cl)ccc(F)c1Cl [Crizotinib] (partner 1 µM): 0.971.

A further assay has as its system NCI-H1355. Described as above. Conditions: first compound 0.2 µM. The method in brief:
as §1
Regarding `COCC1(CO)C(=O)C2CCN1CC2` (configuration not stated) [PRIMA-1MET] + O=C(CCCCCCC(=O)Nc1ccccc1)NO [Vorinostat] (partner 1 µM), the relative viability is 0.648.
The same measure, in the same setting: the same measure for `COCC1(CO)C(=O)C2CCN1CC2` (configuration not stated) [PRIMA-1MET] + C[C@]1(O)C[C@@H](c2nc(-c3ccc4ccc(-c5ccccc5)nc4c3)c3c(N)nccn32)C1 [Linsitinib] (partner 1 µM): 0.998.
Still for that read-out and setting: with `COCC1(CO)C(=O)C2CCN1CC2` (configuration not stated) [PRIMA-1MET] + Cc1cc(Nc2cc(N3CCN(C)CC3)nc(Sc3ccc(NC(=O)C4CC4)cc3)n2)n[nH]1 [Tozasertib] (partner 0.1 µM) the figure was 0.581.
Same read-out and setting: with `COCC1(CO)C(=O)C2CCN1CC2` (configuration not stated) [PRIMA-1MET] + Cc1nc(NC(=O)N2CCC[C@H]2C(N)=O)sc1-c1ccnc(C(C)(C)C(F)(F)F)c1 [Alpelisib] (partner 2 µM) the figure was 0.953; with `COCC1(CO)C(=O)C2CCN1CC2` (configuration not stated) [PRIMA-1MET] + C[C@@H](Oc1cc(-c2cnn(C3CCNCC3)c2)cnc1N)c1c(Cl)ccc(F)c1Cl [Crizotinib] (partner 1 µM), 1.2.

Staying with this assay, now noted: first compound 0.6325 µM.
In turn, `COCC1(CO)C(=O)C2CCN1CC2` (configuration not stated) [PRIMA-1MET] + O=C(CCCCCCC(=O)Nc1ccccc1)NO [Vorinostat] (partner 1 µM) came in with a relative viability of 0.632.
Same read-out and setting: with `COCC1(CO)C(=O)C2CCN1CC2` (configuration not stated) [PRIMA-1MET] + C[C@]1(O)C[C@@H](c2nc(-c3ccc4ccc(-c5ccccc5)nc4c3)c3c(N)nccn32)C1 [Linsitinib] (partner 1 µM) the figure was 0.796; with `COCC1(CO)C(=O)C2CCN1CC2` (configuration not stated) [PRIMA-1MET] + Cc1cc(Nc2cc(N3CCN(C)CC3)nc(Sc3ccc(NC(=O)C4CC4)cc3)n2)n[nH]1 [Tozasertib] (partner 0.1 µM), 0.568; with `COCC1(CO)C(=O)C2CCN1CC2` (configuration not stated) [PRIMA-1MET] + Cc1nc(NC(=O)N2CCC[C@H]2C(N)=O)sc1-c1ccnc(C(C)(C)C(F)(F)F)c1 [Alpelisib] (partner 2 µM), 0.7.
On the same count and under the same terms, with `COCC1(CO)C(=O)C2CCN1CC2` (configuration not stated) [PRIMA-1MET] + C[C@@H](Oc1cc(-c2cnn(C3CCNCC3)c2)cnc1N)c1c(Cl)ccc(F)c1Cl [Crizotinib] (partner 1 µM) the figure was 1.02.

Staying with this assay, now noted: first compound 2 µM.
The compound `COCC1(CO)C(=O)C2CCN1CC2` (configuration not stated) [PRIMA-1MET] + O=C(CCCCCCC(=O)Nc1ccccc1)NO [Vorinostat] (partner 1 µM) showed a relative viability of 0.556.
`COCC1(CO)C(=O)C2CCN1CC2` (configuration not stated) [PRIMA-1MET] + C[C@]1(O)C[C@@H](c2nc(-c3ccc4ccc(-c5ccccc5)nc4c3)c3c(N)nccn32)C1 [Linsitinib] (partner 1 µM) came in with a relative viability of 0.68.
On the same count and under the same terms, with `COCC1(CO)C(=O)C2CCN1CC2` (configuration not stated) [PRIMA-1MET] + Cc1cc(Nc2cc(N3CCN(C)CC3)nc(Sc3ccc(NC(=O)C4CC4)cc3)n2)n[nH]1 [Tozasertib] (partner 0.1 µM) the figure was 0.564; with `COCC1(CO)C(=O)C2CCN1CC2` (configuration not stated) [PRIMA-1MET] + Cc1nc(NC(=O)N2CCC[C@H]2C(N)=O)sc1-c1ccnc(C(C)(C)C(F)(F)F)c1 [Alpelisib] (partner 2 µM), 0.766.
Same read-out and setting: with `COCC1(CO)C(=O)C2CCN1CC2` (configuration not stated) [PRIMA-1MET] + C[C@@H](Oc1cc(-c2cnn(C3CCNCC3)c2)cnc1N)c1c(Cl)ccc(F)c1Cl [Crizotinib] (partner 1 µM) the figure was 0.897.

Still in this assay, the particulars now being: first compound 6.325 µM.
With `COCC1(CO)C(=O)C2CCN1CC2` (configuration not stated) [PRIMA-1MET] + O=C(CCCCCCC(=O)Nc1ccccc1)NO [Vorinostat] (partner 1 µM), the relative viability was 0.671.
On the same count and under the same terms, the same measure for `COCC1(CO)C(=O)C2CCN1CC2` (configuration not stated) [PRIMA-1MET] + C[C@]1(O)C[C@@H](c2nc(-c3ccc4ccc(-c5ccccc5)nc4c3)c3c(N)nccn32)C1 [Linsitinib] (partner 1 µM): 0.81; for `COCC1(CO)C(=O)C2CCN1CC2` (configuration not stated) [PRIMA-1MET] + Cc1cc(Nc2cc(N3CCN(C)CC3)nc(Sc3ccc(NC(=O)C4CC4)cc3)n2)n[nH]1 [Tozasertib] (partner 0.1 µM): 0.629.
The same measure, in the same setting: the same measure for `COCC1(CO)C(=O)C2CCN1CC2` (configuration not stated) [PRIMA-1MET] + Cc1nc(NC(=O)N2CCC[C@H]2C(N)=O)sc1-c1ccnc(C(C)(C)C(F)(F)F)c1 [Alpelisib] (partner 2 µM): 0.86.
